Common to all, as to type: cell-based
Test [1] addresses T1, human somatostatin receptor subtype 2 (Homo sapiens, UniProt P30874).
T1 construct: expressed in transfected cells
Put plainly: Functional assay for SSTR2 agonists (HTRF cAMP). Conditions: CHO-K1 cells stably expressing human SST2; NKH477-stimulated cAMP; 20 min at 37 C; read-out: hSST2 cAMP Avg EC50. A digest of the protocol:
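CHO-K1 cells stably expressing human SSTR2 treated with compound (typically 0-10,000 nM final) for 20 min at 37 °C. Lysate cAMP measured by HTRF (665/620 nm ratio), converted via standard curve; EC50 from cAMP vs concentration.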
A general note: TR-FRET usually uses a lanthanide donor and a delayed reading to cut background.

The next test concerns the target T2, SST2 (Homo sapiens, UniProt P30874).
T2 construct: host or cells: PathHunter CHO-K1 SST2 cells
Put plainly: PathHunter CHO-K1 SST2 Internalization Assay. Conditions: PathHunter CHO-K1 SST2 cells; 90 min at 37 C; luminescence; read-out: Internalization EC50. The method, boiled down:
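CHO-K1 cells expressing human SST2, 2500 cells/well, grown 48 h, then exposed 90 min at 37 C to 11-point 1:3 NDC dilutions (final top 10 uM). Beta-Glo luminescence after 60 min at room temperature; four-parameter IC50, duplicate mean, background-corrected.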

Test [2] concerns NCI-H524 human small cell lung cancer cells. As to the kind of experiment: H524 assay: inhibition of cell proliferation (CellTiter Glo). The conditions noted are these: 2 h treatment, washout, additional 70 h incubation. A digest of the protocol:
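NCI-H524 cells were exposed for 2 h to NDC in an 11-point two-fold series starting at 1 uM. The drug was then washed out and cells grew a further 70 h. CellTiter Glo luminescence gave % inhibition versus untreated control, and IC50 came from a four-parameter nonlinear regression.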

This passage reports EC50 results from patent US20260007758A1, “SO[…]-2 RECEPTOR (SST2R) NON-PEPTIDE DRUG CONJUGATES AND USES THEREOF” (Crinetics Pharmaceuticals, Inc., priority 2024, published 2026).

SMILES strings stand for the structures.

T1 sequence (P30874 whole entry): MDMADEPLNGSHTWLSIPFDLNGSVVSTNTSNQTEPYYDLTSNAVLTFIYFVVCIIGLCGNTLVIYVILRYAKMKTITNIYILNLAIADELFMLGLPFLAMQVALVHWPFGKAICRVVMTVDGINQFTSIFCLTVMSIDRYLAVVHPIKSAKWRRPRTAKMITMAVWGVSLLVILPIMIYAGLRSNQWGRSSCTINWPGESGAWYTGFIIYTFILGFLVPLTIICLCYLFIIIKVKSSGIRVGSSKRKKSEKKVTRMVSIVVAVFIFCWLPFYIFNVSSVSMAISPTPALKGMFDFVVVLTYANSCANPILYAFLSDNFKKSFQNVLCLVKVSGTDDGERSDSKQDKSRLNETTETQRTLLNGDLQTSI
T2 sequence (P30874 whole entry): as above

The EC50 is the midpoint of the concentration-response curve. In the case of `CC[C@H](C)[C@@H]([C@@H](CC(=O)N1CCC[C@H]1[C@H](OC)[C@@H](C)C(=O)N[C@H](C)[C@@H](O)c1ccccc1)OC)N(C)C(=O)[C@H](C)NC(=O)[C@H](C(C)C)N(C)C(=O)OCc1ccc(NC(=O)[C@H](C)NC(=O)[C@@H](NC(=O)CCOCCNC(=O)CCNc2ncc(-c3cc(C)cc(F)c3)c(N3CCC(N)CC3)c2-c2nc3ccc(Cl)cc3[nH]2)C(C)C)c(O[C@@H]2O[C@H](C(=O)O)[C@@H](O)[C@H](O)[C@H]2O)c1` [Compound 194], the concentration giving a half-maximal response (EC50) turned out to be 0.16 nM in test [1], 7.6 nM at SST2 and 21 nM in test [2].

Take `CC[C@H](C)[C@@H]([C@@H](CC(=O)N1CCC[C@H]1[C@H](OC)[C@@H](C)C(=O)N[C@H](C)[C@@H](O)c1ccccc1)OC)N(C)C(=O)[C@@H](NC(=O)[C@H](C(C)C)N(C)C(=O)OCc1ccc(NC(=O)[C@H](CCCNC(N)=O)NC(=O)[C@@H](NS(=O)(=O)C[C@H](C)NC(=O)CCOCCC(=O)NCCNc2ncc(-c3cc(C)cc(F)c3)c(N3CCC(N)CC3)c2-c2nc3ccc(Cl)cc3[nH]2)C(C)C)c(O[C@@H]2O[C@H](C(=O)NCC(=O)O)[C@@H](O)[C@H](O)[C@H]2O)c1)C(C)C` [Compound 214]: the EC50 is 0.11 nM in test [1], 4 nM at SST2 and 8.9 nM in test [2].

`CC[C@H](C)[C@@H]([C@@H](CC(=O)N1CCC[C@H]1[C@H](OC)[C@@H](C)C(=O)N[C@H](C)[C@@H](O)c1ccccc1)OC)N(C)C(=O)[C@@H](NC(=O)[C@H](C(C)C)N(C)C(=O)OCc1ccc(NC(=O)[C@H](CCCNC(N)=O)NC(=O)[C@@H](NC(=O)CCOCCOCCOCCOCCC(=O)NCCNc2ncc(-c3cc(C)cc(F)c3)c(N3CCC(N)CC3)c2-c2nc3ccc(Cl)cc3[nH]2)C(C)C)cc1C(=O)NCC(=O)O)C(C)C` [Compound 86]: the EC50 amounted to 0.068 nM in test [1], 4.1 nM at SST2 and 1000 nM in test [2].

For `CC[C@H](C)[C@@H]([C@@H](CC(=O)N1CCC[C@H]1[C@H](OC)[C@@H](C)C(=O)N[C@H](C)[C@@H](O)c1ccccc1)OC)N(C)C(=O)[C@@H](NC(=O)[C@H](C(C)C)N(C)C(=O)OCc1ccc(NC(=O)[C@H](CCCNC(N)=O)NC(=O)[C@@H](NC(=O)C[C@@H](N)C(=O)NCCOCCOCCOCCOCCC(=O)NCCNc2ncc(-c3cc(C)cc(F)c3)c(N3CCC(N)CC3)c2-c2nc3ccc(Cl)cc3[nH]2)C(C)C)c(OCC(=O)O)c1)C(C)C` [Compound 23], the EC50 in test [1] came out at 0.29 nM; at SST2 it was 20 nM; in test [2], 32 nM.

On to `CC[C@H](C)[C@@H]([C@@H](CC(=O)N1CCC[C@H]1[C@H](OC)[C@@H](C)C(=O)N[C@H](C)[C@@H](O)c1ccccc1)OC)N(C)C(=O)[C@@H](NC(=O)[C@H](C(C)C)N(C)C(=O)OCc1ccc(NC(=O)[C@H](C)NC(=O)[C@@H](NC(=O)CCOCCC(=O)NCCNc2ncc(-c3cc(C)cc(F)c3)c(N3CCC(N)CC3)c2-c2nc3ccc(Cl)cc3[nH]2)C(C)C)c(O)c1)C(C)C` [Compound 17], for which the EC50 in test [1] was found to be 0.44 nM; at SST2, 3.8 nM; in test [2] it was 5.4 nM.

For `CC[C@H](C)[C@@H]([C@@H](CC(=O)N1CCC[C@H]1[C@H](OC)[C@@H](C)C(=O)N[C@H](C)[C@@H](O)c1ccccc1)OC)N(C)C(=O)[C@@H](NC(=O)[C@H](C(C)C)N(C)C(=O)OCc1ccc(NC(=O)[C@H](CCCNC(N)=O)NC(=O)[C@@H](NC(=O)C[C@@H](N)C(=O)NCCOCCC(=O)NCCNc2ncc(-c3cc(C)cc(F)c3)c(N3CCC(N)CC3)c2-c2nc3ccc(Cl)cc3[nH]2)C(C)C)c(OCC(=O)O)c1)C(C)C` [Compound 22], the concentration giving a half-maximal response (EC50) in test [1] is 0.17 nM; at SST2, 17 nM; in test [2], 22 nM.
